Test results as given in patent publication US20100137448A1, “Methods for Treating Neuropsychiatric Disorders with NMDA Receptor Antagonists” (priority 2000, published 2010).
Entries after “also recorded” stand apart in the source; their conditions may differ.

Key:
[1] = test system: precontracted aortic vessel; test: Relaxation of norepinephrine-precontracted rabbit aortic rings; format: tissue-based
Protocol: New Zealand white female rabbits weighing 3-4 kilograms were anesthetized with sodium pentobarbital, 13 milligram per kilogram. Descending thoracic aorta were isolated, the vessels were cleaned of adherent tissue and the endothelium was removed by a gentle rubbing with a cotton-tipped applicator inserted into the lumen. The vessels were cut into 5 millimeter rings and mounted on stirrups connected to transducers by which changes in isometric tension were recorded (model TO3C, Grass Instruments, Quincy, Mass.). Vessel rings were suspended in 20 mL of oxygenated Krebs buffer at 37° C. and sustained contractions were induced with 1 μM norepinephrine. The vessels were then relaxed in a dose-dependent fashion ([…] through 10^−5 M compound 8). In some experiments vessels were pretreated with methylene blue or […] hemoglobin to block relaxations.
Relaxations were attenuated by methylene blue (c) and hemoglobin (d) indicating an NO-related effect. (b) is a control with solvent.

C57B1/6 mice = test: Murine cerebral ischemia model, intraluminal suture MCA occlusion; format: in vivo
Protocol: The intraluminal suture technique was used to produce a 2 hr occlusion of the middle cerebral artery (MCA), following the same protocol for focal cerebral ischemial reperfusion as published previously (Chen, et al., Neuroscience (1998) 86: 1121). However, here C57B1/6 mice were used instead of rats. […] To produce a neuroprotective concentration of compound 7, the loading dose was 100 mg/kg i.p. and the maintenance dose was 40 mg/kg i.p. every 12 hr. In each case, drug or vehicle control was initially administered 2 hr after MCA occlusion. […] The animals were sacrificed and analyzed with TTC staining 48 hr after MCA occlusion (Chen, et al., Neuroscience (1998) 86: 1121).

cerebrocortical neurons = test: NMDA-induced apoptosis of cerebrocortical neurons (in vitro protection); format: cell-based
Protocol: Cerebrocortical cultures were exposed to 300 μM NMDA for 20 mm with or without various concentrations of compound 7. The next day cultures were analyzed by neuronal apoptosis as described in Example 19.
Under these conditions (300 μM NMDA exposure for 20 mm, followed by washout), neuronal apoptosis was monitored 24 hours later by propidium iodide uptake and morphology of fixed, permeabilized neurons, among other techniques (Bonfoco et al., Proc Natl Acad Sci USA (1995) 92: 7162). NMDA induced about 20% apoptosis of neurons, and that 25-100 μM compound 7 afforded protection from this damage (P<0.001, FIG. 5).

[2] = cited from earlier work
human albumin = human albumin (Homo sapiens, UniProt P02768); details: cited from earlier work
Chain of human albumin (P02768 25-609): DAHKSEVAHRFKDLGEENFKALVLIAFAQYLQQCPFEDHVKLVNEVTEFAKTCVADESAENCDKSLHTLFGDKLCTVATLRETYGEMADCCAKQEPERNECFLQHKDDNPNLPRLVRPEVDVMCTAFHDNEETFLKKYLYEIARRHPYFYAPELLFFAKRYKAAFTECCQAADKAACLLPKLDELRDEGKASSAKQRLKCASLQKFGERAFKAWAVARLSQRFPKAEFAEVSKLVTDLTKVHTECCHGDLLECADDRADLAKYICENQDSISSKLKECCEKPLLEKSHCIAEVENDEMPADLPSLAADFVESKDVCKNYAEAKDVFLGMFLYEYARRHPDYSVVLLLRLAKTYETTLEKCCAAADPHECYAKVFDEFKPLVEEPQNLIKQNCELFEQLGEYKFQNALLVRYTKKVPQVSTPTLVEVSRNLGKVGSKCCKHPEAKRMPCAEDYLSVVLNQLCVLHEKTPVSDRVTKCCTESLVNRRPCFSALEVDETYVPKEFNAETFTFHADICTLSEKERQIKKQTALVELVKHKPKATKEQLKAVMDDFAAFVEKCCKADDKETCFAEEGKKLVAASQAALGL

[3] = loading dose 20 mg/kg i.p., maintenance 1 mg/kg/12 hours; cited from earlier work
[4] = humans, 5 to 30 mg/day; cited from earlier work

## CC(=O)NC12CC3(C)CC(C)(C1)CC(O[N+](=O)[O-])(C3)C2 [Compound 8, 1-acetamido-3,5-dimetbyl-7-nitrateadamantane]
[1]; endothelium-denuded rings, 1 μM norepinephrine
  effect on precontracted aortic vessel: relaxes a precontracted aortic vessel in a dose-dependent fashion
[1]; vessels pretreated with hemoglobin
  relaxations after pretreatment with hemoglobin: attenuated
[1]; vessels pretreated with methylene blue
  relaxations after pretreatment with methylene blue: attenuated

## CC(=O)NC12CC3(C)CC(C)(CC(CO)(C3)C1)C2 [Compound 17, 1-Acetamido-3,5-dimethyl-7-hydroxymethyladamantane]
other
  melting point: 152 to 153 °C

## 1-amino-3,5-dimethyl-7-hydroxyadamantane hydrochloride [Compound 9]
[1]; FIG. 8, hydrochloride
  effect on blood vessel, compared with solvent (EtOH): either no effect or slight blood vessel contractions
[1]; FIG. 8, listed as compound 9, hydrochloride
  effect on blood vessel, compared with solvent (EtOH): either no effect or slight contractions of blood vessels

## CC(=O)NC12CC3(C)CC(C)(CC(O)(C3)C1)C2 [Compound 3, 1-acetamido-3,5-dimethyl-7-hydroxyadamantane]
other
  melting point: 194 to 195 °C

## CC12CC3(C)CC(N)(C1)CC(O[N+](=O)[O-])(C2)C3.Cl [Compound 7, 1-amino-3,5-dimethyl-7-nitrateadamantane hydrochloride]
C57B1/6 mice; 2 hr MCA occlusion, loading 100 mg/kg i.p., maintenance 40 mg/kg i.p. every 12 hr, first dose 2 hr after occlusion, TTC staining 48 hr, n=3, P<0.03 from control, P<0.05 from memantine
  cerebral damage after stroke: effective in decreasing cerebral damage after stroke
C57B1/6 mice; memantine 20 mg/kg i.p. loading, 1 mg/kg/12 hours maintenance, compound 7 100 mg/kg i.p. loading, 40 mg/kg i.p. every 12 hr
  neuroprotection compared with memantine: more neuroprotective than memantine
[1]; 10 μM concentration, FIG. 8
  effect on blood vessel at 10 μM: modest relaxation
Cerebrocortical neurons; 300 μM NMDA 20 mm, washout, apoptosis monitored 24 hours later, NMDA induced about 20% apoptosis, P<0.001
  concentration affording protection from NMDA-induced apoptosis: 25 to 100 µM
Cerebrocortical neurons; 300 μM NMDA for 20 mm, analysed next day, various concentrations, dose-dependent, P<0.001, n=3 cultures
  NMDA-induced neuronal apoptosis: largely prevented

## CC12CC3(C)CC(O)(C1)CC(N(Cc1ccccc1)Cc1ccccc1)(C2)C3 [Compound 10, 1,1-dibenzylamino-3,5-dimethyl-7-hydroxy-adamantane]
[1]; FIG. 8
  effect on blood vessel, compared with solvent (EtOH): either no effect or slight contractions of blood vessels; also recorded: either no effect or slight blood vessel contractions

## CC12CC3CC(C)(C1)CC(N)(C3)C2 [memantine, 1-amino-3,5-dimethyladamantane]
[2]; biphasic elimination, first phase
  average half-life, first therapeutically relevant phase: 4 to 9 h
[2]; biphasic elimination, second phase
  average half-life, second phase: 40 to 65 h
[2]; in vivo
  elimination by the renal route: 75%-90%
  fecal excretion: 10%-25%
Human albumin
  bound to human albumin: < 10%
[3]
  parenchymal levels in the brain: 1 to 10 µM
[4]
  mean CSF/serum ratio: 0.52
